Results published in ChEMBL document CHEMBL2073942, “Localization of organic anion transport protein 2 in the apical region of rat retinal pigment epithelium” (Invest Ophthalmol Vis Sci, 2002).

Target: T1, Solute carrier organic anion transporter family member 1A4 (Rattus norvegicus, UniProt O35913)
T1 sequence (O35913 whole entry): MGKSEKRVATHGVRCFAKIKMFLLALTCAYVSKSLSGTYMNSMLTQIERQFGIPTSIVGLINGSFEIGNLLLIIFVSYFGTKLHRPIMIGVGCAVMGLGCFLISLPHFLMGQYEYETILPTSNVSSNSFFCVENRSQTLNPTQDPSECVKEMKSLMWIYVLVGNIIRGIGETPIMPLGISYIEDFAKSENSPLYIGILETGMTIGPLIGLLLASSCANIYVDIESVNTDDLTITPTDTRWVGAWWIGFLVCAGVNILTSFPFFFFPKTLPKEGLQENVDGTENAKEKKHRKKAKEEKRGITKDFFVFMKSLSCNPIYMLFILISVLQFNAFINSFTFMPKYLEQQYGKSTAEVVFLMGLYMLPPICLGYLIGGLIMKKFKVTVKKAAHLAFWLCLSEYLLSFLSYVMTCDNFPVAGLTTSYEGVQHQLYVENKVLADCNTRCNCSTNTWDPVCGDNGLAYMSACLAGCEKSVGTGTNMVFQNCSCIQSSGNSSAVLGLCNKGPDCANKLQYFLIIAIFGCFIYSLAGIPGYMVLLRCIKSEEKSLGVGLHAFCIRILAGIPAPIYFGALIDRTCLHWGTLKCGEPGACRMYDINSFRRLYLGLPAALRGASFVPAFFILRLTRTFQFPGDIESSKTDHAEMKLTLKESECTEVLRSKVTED
Assay: TP_TRANSPORTER: inhibition of Digoxin uptake in Xenopus laevis oocytes
Type: functional, cell-based, Oocyte

Ki: 37 µM
Compound: CC1=C(/C=C/C(C)=C/C=C/C(C)=C/c2cc(/C=C/C=C(C)/C=C/C3=C(C)CCCC3(C)C)cc[n+]2CCO)C(C)(C)CCC1
